The source of these data is US7396836B2, “Pyrimidine compound and medicinal composition thereof” (Eisai R&D Management Co., Ltd., priority 2001, dated 2008).

Experiment [1] deals with T1, human adenosine A1 receptor (Homo sapiens, UniProt P30542).
T1 construct: expressed in transfected cells; host or cells: CHOK1 cells (membrane sample)
T1 sequence (P30542 1-326): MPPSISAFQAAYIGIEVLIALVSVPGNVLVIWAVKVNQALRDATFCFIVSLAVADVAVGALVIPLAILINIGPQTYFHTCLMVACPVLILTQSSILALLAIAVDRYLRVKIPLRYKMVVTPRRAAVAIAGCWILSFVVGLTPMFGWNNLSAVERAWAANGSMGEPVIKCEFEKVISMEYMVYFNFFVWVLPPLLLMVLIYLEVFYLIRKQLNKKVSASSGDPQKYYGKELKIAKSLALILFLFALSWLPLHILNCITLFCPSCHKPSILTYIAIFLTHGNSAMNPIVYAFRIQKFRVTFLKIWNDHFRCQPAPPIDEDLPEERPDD
The experiment is described as follows: Binding affinity to adenosine A1 receptor (3H-CCPA displacement). The settings on record: membranes of CHOK1 cells expressing human A1 receptor, Cheng-Prusoff. On the procedure: Measurement of the binding affinity to adenosine A1 receptor
A human adenosine A1 receptor cDNA was expressed in excess in CHOK1 cells, and this membrane sample was suspended at a protein concentration of 66.7 μg/ml in 20 mM HEPES buffer, pH 7.4 (10 mM MgCl2, 100 mM NaCl). To 0.45 ml of this membrane sample suspension were added 0.025 ml of 60 nM tritium-labeled chlorocyclopentyl adenosine (^3H-CCPA, from NEN Ltd.) and 0.025 ml of test compound. This mixture was left at 30° C. for 120 minutes, filtered rapidly under suction through a glass fiber filter (GF/B, from Whatman), and immediately washed twice with 5 ml of 50 mM water-cooled Tris-HCl buffer. Thereafter, the glass fiber filter was transferred to a vial, scintillator was added thereto, and the radioactivity on the filter was measured by a liquid scintillation counter. The inhibition of binding of ^3H-CCPA to A1 receptor by the test compound was determined using the following formula, and from this value, 50% inhibition concentration (IC50) was calculated. Inhibition (%)=[1-{(binding in the presence of the test compound-nonspecific binding)/(total binding-nonspecific binding)}]×100
In the above formula, the total binding means ^3H-CCPA-bound radioactivity in the absence of the test compound; the nonspecific binding means ^3H-CCPA-bound radioactivity in the presence of 100 μM CPA ([…]); and the binding in the presence of the test compound means ^3H-CCPA-bound radioactivity in the presence of the test compound at predetermined concentrations. The inhibition constant (Ki value) in the table was determined from the formula of Cheng-Prusoff.

In another experiment the target is T2, adenosine A2A receptor (Homo sapiens, UniProt P29274).
T2 construct: purchased Receptor Biology Inc
T2 sequence (P29274 whole entry): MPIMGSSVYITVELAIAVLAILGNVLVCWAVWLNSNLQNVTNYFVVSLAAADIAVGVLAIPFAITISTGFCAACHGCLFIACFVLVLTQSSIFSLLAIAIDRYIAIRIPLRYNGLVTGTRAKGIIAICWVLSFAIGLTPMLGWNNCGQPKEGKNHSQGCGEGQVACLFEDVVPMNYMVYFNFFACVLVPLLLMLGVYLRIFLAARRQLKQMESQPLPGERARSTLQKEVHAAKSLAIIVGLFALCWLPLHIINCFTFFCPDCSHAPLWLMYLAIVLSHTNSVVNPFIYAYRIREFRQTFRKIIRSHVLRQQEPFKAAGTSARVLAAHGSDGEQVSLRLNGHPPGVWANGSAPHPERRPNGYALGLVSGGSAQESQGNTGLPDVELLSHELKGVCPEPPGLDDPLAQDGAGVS
The experiment is described as follows: Binding ability to adenosine A2A receptor (3H-CGS21680 displacement). Conditions: A2A receptor membrane sample, Cheng-Prusoff. On the procedure:
Measurement of the Binding Ability to Adenosine A2A Receptor
An experiment of inhibition of binding to adenosine A2A receptor was conducted using a membrane sample (Receptor Biology Inc.) where an adenosine A2A receptor cDNA was expressed in excess. This membrane sample was suspended at a protein concentration of 22.2 μg/ml in 20 mM HEPES buffer, pH 7.4 (10 mM MgCl2 and 100 mM NaCl). To 0.45 ml of this membrane sample suspension were added 0.025 ml of 500 nM tritium-labeled 2-p-[2-carboxyethyl]phenetylamino-5′-N-ethylarboxyamide adenosine (^3H-CGS21680, from NEN) and 0.025 ml of test compound. This mixture was left at 25° C. for 90 minutes, filtered rapidly under suction through a glass fiber filter (GF/B, from Whatman), and immediately washed twice with 5 ml of 50 mM ice-cooled Tris-HCl buffer. Thereafter, the glass fiber filter was transferred to a vial, scintillator was added thereto, and the radioactivity on the filter was measured by a liquid scintillation counter. The inhibition of binding of ^3H-CGS21680 to A2A receptor by the test compound was determined using the following formula, and from this inhibition, 50% inhibition concentration (IC50) was calculated. Inhibition (%)=[1−{[(binding in the presence of the test compound)−(nonspecific binding)]/[(total binding)−(nonspecific binding)]}]×100
Here, the total binding means ^3H-CGS21680-bound radioactivity in the absence of the test compound; the nonspecific binding means ^3H-CGS21680-bound radioactivity in the presence of 100 μM RPIA; and the binding in the presence of the test compound means ^3H-CGS21680-bound radioactivity in the presence of the test compound at predetermined concentrations. The inhibition constant (Ki value) in the table was determined from the formula of Cheng-Prusoff.

In experiment [2] the target is T3, human adenosine A2B receptor (Homo sapiens, UniProt P29275).
T3 construct: expressed in transfected cells; host or cells: CHOK1 cells
T3 sequence (P29275 1-332): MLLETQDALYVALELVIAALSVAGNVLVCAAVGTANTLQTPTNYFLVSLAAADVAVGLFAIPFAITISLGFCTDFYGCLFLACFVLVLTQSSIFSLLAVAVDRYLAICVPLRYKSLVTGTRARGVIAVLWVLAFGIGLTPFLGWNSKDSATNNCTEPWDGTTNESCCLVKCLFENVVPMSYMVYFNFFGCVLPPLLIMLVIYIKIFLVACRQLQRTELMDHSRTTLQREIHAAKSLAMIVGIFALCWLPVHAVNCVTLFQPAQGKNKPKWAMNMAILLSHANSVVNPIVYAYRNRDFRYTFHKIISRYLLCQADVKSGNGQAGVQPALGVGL
Briefly: Inhibition of NECA-stimulated production of cAMP in adenosine A2B receptor-expressing CHOK1 cells. The settings on record: cAMP stimulated by 30 nM NECA. It counts as cell-based. The protocol: Experiment of Inhibition of NECA-stimulated Production of cAMP in Adenosine A2B Receptor-expressing Cells
CHOK1 cells where human adenosine A2B receptor had been expressed in excess were plated onto a 24-well plate at a density of 1.5×10^5 cells/well, cultured overnight, and used in the experiment. The degree of inhibitory effect of the test compound on the amount of cAMP produced by stimulation with 30 nM 5′-N-ethylcarboxyamide adenosine (NECA from Sigma) was evaluated in terms of affinity for A2B receptor. That is, the adhering cells were washed twice with 2 ml/well Krebs-Ringer buffer solution (containing 0.1% BSA; pH 7.4) and pre-incubated for 30 minutes in a volume of 0.5 ml/well. Then, a mixed solution containing NECA and the test compound was added in a volume of 0.1 ml/well in the presence of a phosphodiesterase inhibitor Ro-20-1724 (a product of RBI). After pre-incubation for 15 minutes, the reaction was terminated with 0.1 N HCl in a volume of 300 μl/well. Measurement of intracellular cAMP was carried out using a cAMP enzyme immunoassay kit produced by Amersham. The inhibition of NECA-stimulated production of cAMP by the test compound was determined using the following equation: Inhibition (%)=[1−{(amount of cAMP in the coexistence of NECA and the test compound-amount of cAMP in only the Krebs-Ringer buffer solution)/(amount of cAMP upon stimulation with NECA only-amount of cAMP in only the Krebs-Ringer buffer solution)}]×100

Another experiment has as its system SD IGS rats. Briefly: Evaluation of defecation-promoting action. It is filed as in vivo, rat. Conditions: 3 mg/kg oral, 90 minutes after administration, per cage (3 animals/cage). The text has this: Evaluation of Defecation-Promoting Action
The defecation-promoting action of the adenosine A2B receptor-inhibiting compound which was identified by measuring the binding affinity or antagonistic activity thereof to the adenosine receptor in Test Examples 1 to 3, a salt thereof, a solvate of them, or a pharmaceutical composition containing it can be evaluated on the basis of the following method. That is, SD IGS rats (6 weeks-old, from Charles River) were placed in cages (3 animals/cage) and preliminarily allowed food and water ad libitum and raised for 1 week. Then, a tared water-absorbing sheet was placed below each cage, and the animals were fasted but allowed water ad libitum throughout the experiment. After 1.5 hours, the fecal pellets were collected from each cage and observed for abnormality before the experiment. The compound suspended or dissolved in 0.5% (w/v) methyl cellulose (MC) was orally administered in a volume of 5 ml/kg. On one hand, 0.5% (w/v) MC only was orally given to the control group. After administration of the compound, the rats were returned to the cage provided with a new water-absorbing sheet, and 90 minutes after the administration, the fecal pellets on the water-absorbing sheet were collected from each cage, and the external appearance was observed, and then counted and weighed. The number of fecal pellets is expressed per each cage.

Experiment [3] deals with haloperidol-induced catalepsy. Briefly: Evaluation of effects on haloperidol-induced catalepsy. It is filed as in vivo, mouse. Conditions: ICR mice, haloperidol 1 mg/kg i.p., 1 hour after administration, score 0-5. The text has this: Evaluation of Effects on Haloperidol-induced Catalepsy Parkinson's disease is a disease caused by the degeneration or cell death of nigrostriatal dopaminergic neurons. The administration of haloperidol (dopamine D1/D2 receptor antagonist) blocks postsynaptic D2 receptors to induce catalepsy. The haloperidol-induced catalepsy has been known as a classic model that mimics Parkinson's disease by drug administration (Eur. J. Pharmacol., 182, 327-334(1990)). The adenosine A2A receptor antagonist compounds identified by measuring on their binding abilities to the receptors in Test Examples 1 to 3, the salts thereof, solvates of them, or pharmaceutical compositions containing those were evaluated for effect on haloperidol-induced catalepsy by the method described below. That is, the experiment was conducted by eight 5-week-old male ICR mice (available from Charles River) per group. Haloperidol (manufactured by Sigma Co., Ltd.) was dissolved in a 6.1% tartaric acid solution and the resulting solution in a dose of 1 mg/kg was then intraperitoneally administered to the mice. The test compound was used as a 0.5% MC suspension. 1.5 hours after the intraperitoneal administration of haloperidol, each of the suspension with the test compound and the suspension without the test compound (control) was orally administered to the mice (0.1 ml per 10 g of mouse body weight). 1 hour after the administration of the test compound, the degree of catalepsy was measured with respect to each of the mice such that a pair of only forelimbs and a pair of only hindlimbs of each mouse were placed by turns on a stand 4.5 cm in height and 10 cm in width. […] Catalepsy scores and criterions are as follows. […] The effects of the compound were determined by making a comparison between the score of the control group and the score of the test group in which the test compound was administered. A significant difference was analyzed by Dunnett's-test.

In the case of `Cn1cc(-c2cnc(N)nc2-c2ccco2)ccc1=O` [Example 16, 5-[2-Amino-4-(2-furyl)-5-pyrimidinyl]-1-methyl-1,2-dihydro-2-pyridinone], the Ki in experiment [1] was 175 nM; on adenosine A2A receptor it was 6 nM. Half-maximal inhibition in experiment [2] (IC50) required 29 nM. Besides, the “Number of fecal pellets Mean ± S.E.” value with SD IGS rats is on record as 12.50 ± 0.96. The “Catalepsy score (Mean ± S.E.)” value is 4.63 ± 0.38 in experiment [3] (test compound 0.1 mg/kg oral) and 0.88 ± 0.64 in experiment [3] (test compound 1.0 mg/kg oral).

On to `CCn1cc(-c2cnc(N)nc2-c2ccco2)ccc1=O` [Example 17, 5-[2-Amino-4-(2-furyl)-5-pyrimidinyl]-1-ethyl-1,2-dihydro-2-pyridinone], for which the Ki was 289 nM in experiment [1] and 3 nM at adenosine A2A receptor. This compound registered an IC50 in experiment [2] of 25 nM. For the same compound, the “Number of fecal pellets Mean ± S.E.” value in the experiment on SD IGS rats was 15.50 ± 3.18. Besides, the “Catalepsy score (Mean ± S.E.)” value amounted to 3.38 ± 0.53 in experiment [3] (test compound 0.1 mg/kg oral) and 1.13 ± 0.67 in experiment [3] (test compound 1.0 mg/kg oral).

As to `C=CCn1cc(-c2cnc(N)nc2-c2ccco2)ccc1=O` [Example 18, 1-Allyl-5-[2-amino-4-(2-furyl)-5-pyrimidinyl]-1,2-dihydro-2-pyridinone], the inhibitory constant (Ki) in experiment [1] amounted to 114 nM; on adenosine A2A receptor, 2 nM. This compound came in with an IC50 in experiment [2] of 26 nM. In the experiment on SD IGS rats, the “Number of fecal pellets Mean ± S.E.” value is recorded as 14.50 ± 1.26.
